ChEMBL document CHEMBL1201862, “PubChem BioAssay data set” (2004)
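Grown in 96-well plates, cells were treated for 48 hours with each compound at five concentrations. Insufficient inhibition: endpoint recorded as highest concentration tested. Here, GI50 denotes the concentration required for 50% inhibition of growth.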 Active and inactive are the calls of the source. Rule as the data show it: active = GI50 up to about 1.1 µM and inactive = higher.

Key:
Experiment in all cases: NCI tumour cell line growth inhibition, 48 h
K562 = tested on: K562
OVCAR-4 = tested on: OVCAR-4
Malme-3M = tested on: Malme-3M
HCC 2998 = tested on: HCC 2998
SN12C = tested on: SN12C
CCRF-CEM = tested on: CCRF-CEM
SNB-75 = tested on: SNB-75
SK-MEL-28 = tested on: SK-MEL-28
COLO 205 = tested on: COLO 205
SK-OV-3 = tested on: SK-OV-3
NCI-H522 = tested on: NCI-H522
HCT-116 = tested on: HCT-116
HT-29 = tested on: HT-29
CAKI-1 = tested on: CAKI-1
SW-620 = tested on: SW-620
EKVX = tested on: EKVX
M14 = tested on: M14
A498 = tested on: A498

Measured: GI50

CC(Oc1ccc2c(-c3ccccc3)cc(=O)oc2c1)C(=O)O (stereo not given)
inactive: K562 > 100 µM | OVCAR-4 > 100 µM | Malme-3M > 100 µM | HCC 2998 > 100 µM | SN12C > 100 µM | CCRF-CEM > 100 µM | SNB-75 > 100 µM | SK-MEL-28 > 100 µM | COLO 205 > 100 µM | SK-OV-3 > 100 µM | NCI-H522 > 100 µM | HCT-116 > 100 µM | HT-29 > 100 µM | CAKI-1 > 100 µM | SW-620 > 100 µM | EKVX > 100 µM | M14 > 100 µM | A498 > 100 µM

O=c1ccn([C@@H]2C[C@H](CO)C[S+]([O-])C2)c(=O)[nH]1 (stereo not given in full)
inactive: K562 > 100 µM | OVCAR-4 > 100 µM | Malme-3M > 100 µM | HCC 2998 > 100 µM | SN12C > 100 µM | CCRF-CEM > 100 µM | SNB-75 > 100 µM | SK-MEL-28 > 100 µM | COLO 205 > 100 µM | SK-OV-3 > 100 µM | NCI-H522 > 100 µM | HCT-116 > 100 µM | HT-29 > 100 µM | CAKI-1 > 100 µM | SW-620 > 100 µM | EKVX > 100 µM | M14 > 100 µM | A498 > 100 µM

CN(CCCCN)c1ccc2c(=O)[nH][nH]c(=O)c2c1
inactive: K562 > 100 µM | OVCAR-4 > 100 µM | Malme-3M > 100 µM | HCC 2998 > 100 µM | SN12C > 100 µM | CCRF-CEM > 100 µM | SNB-75 88.3 µM | SK-MEL-28 > 100 µM | COLO 205 > 100 µM | SK-OV-3 > 100 µM | NCI-H522 > 100 µM | HCT-116 > 100 µM | HT-29 > 100 µM | CAKI-1 > 100 µM | SW-620 > 100 µM | EKVX > 100 µM | M14 13.5 µM | A498 > 100 µM

CCCCCCCCCCNC(=S)OC
inactive: K562 29.2 µM | OVCAR-4 47.2 µM | Malme-3M 69.8 µM | HCC 2998 43.6 µM | SN12C 26.7 µM | CCRF-CEM 24.3 µM | SNB-75 27.4 µM | SK-MEL-28 51.2 µM | SK-OV-3 > 100 µM | NCI-H522 20.2 µM | HCT-116 37.9 µM | HT-29 34.3 µM | CAKI-1 28.5 µM | SW-620 42.8 µM | EKVX 80 µM | M14 63.1 µM | A498 46.2 µM

CC1(C)C(c2ccccc2)=NN(O)c2ccccc21
inactive: K562 > 100 µM | OVCAR-4 > 100 µM | Malme-3M > 100 µM | HCC 2998 > 100 µM | CCRF-CEM > 100 µM | SNB-75 86.1 µM | SK-MEL-28 > 100 µM | COLO 205 > 100 µM | SK-OV-3 > 100 µM | NCI-H522 > 100 µM | HCT-116 > 100 µM | HT-29 > 100 µM | CAKI-1 > 100 µM | SW-620 > 100 µM | EKVX > 100 µM | M14 > 100 µM | A498 > 100 µM

COc1cc2c[n+](C)c3c4cc(OC)c(OC)cc4c(OCCCCCCCCOc4cc5c6cc(OC)c(OC)cc6c[n+](C)c5c5cc(OC)c(OC)cc45)cc3c2cc1OC
inactive: K562 8.71 µM | OVCAR-4 > 100 µM | Malme-3M > 100 µM | HCC 2998 > 100 µM | SN12C > 100 µM | CCRF-CEM 24.8 µM | SNB-75 58.6 µM | SK-MEL-28 > 100 µM | SK-OV-3 > 100 µM | NCI-H522 > 100 µM | HCT-116 > 100 µM | HT-29 67.9 µM | CAKI-1 > 100 µM | SW-620 > 100 µM | EKVX > 100 µM | M14 > 100 µM | A498 > 100 µM
